Laboratory results taken from EPA's ToxRefDB 2.

Assays:
rat [1] = settings: Neurotoxicity screening battery; fischer; Inhalation; Whole-Body; dose end: 1 day; group: cannot be grouped; systemic / in life observation / clinical signs / abnormal gait + systemic / in life observation / clinical signs / body temperature + …
rat [2] = settings: Subchronic inhalation toxicity, fischer, Whole-Body, dose end: 13 week, group: systemic
rabbit = settings: Prenatal developmental toxicity study; new zealand white; Oral; Gavage/Intubation; dose end: 18 GD; group: maternal; systemic / in life observation / body weight / body weight + systemic / in life observation / body weight / body weight gain + systemic / in…
rat [3] = settings: Developmental neurotoxicity study; sprague dawley; Oral; Gavage/Intubation; dose end: 68 PND; group: cannot be grouped; systemic / in life observation / mortality / mortality
rat [4] = settings: Carcinogenicity, fischer, Inhalation, Whole-Body, dose end: 104 week, group: systemic
rat [5] = settings: Prenatal developmental toxicity study, Sprague-Dawley, Oral, Gavage/Intubation, dose end: 15 GD
mouse [6] = settings: Subchronic inhalation toxicity, cd1, Whole-Body, dose end: 13 week, group: systemic
rat [7] = settings: Prenatal developmental toxicity study, sprague dawley, Oral, Gavage/Intubation, dose end: 19 GD
rat [8] = settings: Prenatal developmental toxicity study, sprague dawley, Oral, Gavage/Intubation, dose end: 19 GD; remark: listed apart in the source
mouse [9] = settings: Carcinogenicity; cd1; Oral; Feed; dose end: 18 month; group: systemic; systemic / pathology microscopic / bone marrow / hematopoietic cell proliferation + systemic / pathology microscopic / liver / hematopoietic…
rat [10] = settings: Subchronic oral toxicity in rodents, sprague dawley, Feed, dose end: 90 day
dog = settings: Chronic toxicity; beagle; Oral; Feed; dose end: 60 week; group: systemic; systemic / clinical chemistry / thyroid stimulating hormone (thyrotropin) (tsh) / thyroid stimulating hormone (=thyrotropin) (tsh) + …
rat [11] = settings: Combined chronic toxicity/carcinogenicity; sprague dawley; Oral; Feed; dose end: 24 month; group: systemic; systemic / hematology / erythrocyte (rbc) count differential / erythrocyte (rbc) + systemic / hematology / hematocrit (hct) / hematocrit (…
rat [12] = settings: Multigenerational reproductive toxicity study, sprague dawley, Oral, Feed, dose end: 2 generation
rat [13] = settings: Carcinogenicity, fischer, Oral, Feed, dose end: 78 week, group: systemic
mouse [14] = settings: Carcinogenicity, b6c3f1, Oral, Feed, dose end: 78 week, group: systemic
rat [15] = settings: Other (NonGuideline or Guideline Not Listed); wistar; Injection; Intravenous; dose end: 3 day; group: cannot be grouped; systemic / clinical chemistry / cholesterol / cholesterol + systemic / clinical chemistry / creatinine / creatinine + systemic / clinical …
rat [16] = settings: Sub-acute repeat dose toxicity; sprague dawley; Injection; Intravenous; dose end: 13 day; group: systemic; systemic / clinical chemistry / alanine aminotransferase (alt/sgpt) / alanine aminotransferase (alt/sgpt) + systemic / clinical chemistry / …
rat [17] = settings: Other (NonGuideline or Guideline Not Listed); sprague dawley; Injection; Intravenous; dose end: 3 day; group: cannot be grouped; systemic / clinical chemistry / chloride / chloride + systemic / clinical chemistry / creatinine / creatinine + systemic / clinical …
mouse [18] = settings: Other (NonGuideline or Guideline Not Listed); cd1; Injection; Intravenous; dose end: 7 day; group: cannot be grouped; systemic / clinical chemistry / alanine aminotransferase (alt/sgpt) / alanine aminotransferase (alt/sgpt) + systemic / clinical chemistry / …
[19] = systemic / in life observation / clinical signs / reduced activity
[20] = systemic / in life observation / clinical signs / reduced activity + systemic / hematology / erythrocyte (rbc) count differential / …
[21] = systemic / in life observation / body weight / body weight + systemic / in life observation / body weight / body weight gain + systemic / in…
[22] = systemic / pathology microscopic / testes / adenoma
[23] = group: developmental, systemic / in life observation / body weight / fetal weight
[24] = group: maternal, systemic / in life observation / body weight / body weight gain + systemic / in life observation / mortality / mortality + systemic / organ …
[25] = group: developmental, developmental / developmental malformation / bone / short
[26] = group: maternal, systemic / in life observation / body weight / body weight gain + systemic / in life observation / body weight / body weight + systemic / in…
[27] = group: developmental, developmental / developmental malformation / bone / bent + developmental / developmental malformation / bone / delayed ossification + …
[28] = group: maternal, systemic / in life observation / clinical signs / [other] + systemic / pathology gross / spleen / discolored + systemic / pathology gross / …
[29] = group: cholinesterase, cholinesterase / cholinesterase / cholinesterase / plasma cholinesterase (che)
[30] = group: systemic, systemic / hematology / erythrocyte (rbc) count differential / erythrocyte (rbc) + systemic / hematology / hemoglobin (hgb) / hemoglobin (…
[31] = group: systemic, systemic / pathology microscopic / blood / focal cellular change
[32] = group: offspring, systemic / in life observation / body weight / offspring (pup) weight + systemic / organ weight / liver / absolute + systemic / organ weight…
[33] = group: parental, systemic / organ weight / spleen / absolute + systemic / organ weight / spleen / relative to body weight + systemic / pathology microscopic…
[34] = systemic / in life observation / body weight / body weight
[35] = systemic / pathology microscopic / liver / carcinoma + systemic / pathology microscopic / zymbal's gland / squamous cell carcinoma + …
[36] = systemic / in life observation / body weight / body weight + systemic / pathology microscopic / liver / carcinoma + systemic / in life …

## CC(C)O [Isopropanol]
Rat [1]
  LEL: 5000 ppm
  LOAEL: > 10000 ppm
  NEL: 1500 ppm
  NOAEL: ≥ 10000 ppm
Rat [2]; [19]
  LEL: 500 ppm
  NEL: < 500 ppm
Rat [2]; [20]
  LOAEL: > 5000 ppm
  NOAEL: ≥ 5000 ppm
rabbit
  LEL: 480 mg/kg/day
  LOAEL: > 480 mg/kg/day
  NEL: 240 mg/kg/day
  NOAEL: ≥ 480 mg/kg/day
Rat [3]
  LEL: 1200 mg/kg/day
  LOAEL: 1200 mg/kg/day
  NEL: 700 mg/kg/day
  NOAEL: 700 mg/kg/day
Rat [4]; [21]
  LOAEL: 2500 ppm
  NOAEL: 500 ppm
Rat [4]; [22]
  LEL: 500 ppm
  NEL: < 500 ppm
Rat [5]; [23]
  LEL: 800 mg/kg/day
  LOAEL: > 1200 mg/kg/day
  NEL: 400 mg/kg/day
  NOAEL: ≥ 1200 mg/kg/day
Rat [5]; [24]
  LOAEL: > 1200 mg/kg/day
  NEL: 400 mg/kg/day
  NOAEL: ≥ 1200 mg/kg/day
Rat [5]; group: maternal, systemic / in life observation / mortality / mortality
  LEL: 800 mg/kg/day
Mouse [6]; [21]
  LOAEL: > 5000 ppm
  NEL: 500 ppm
  NOAEL: ≥ 5000 ppm
Mouse [6]; systemic / in life observation / clinical signs / ataxia + systemic / in life observation / clinical signs / lethargy + systemic / in life …
  LEL: 1500 ppm

## CC(C)OC(=O)Nc1cccc(Cl)c1 [Chlorpropham]
Rat [7]; [25]
  LEL: 1000 mg/kg/day
  LOAEL: 1000 mg/kg/day
  NEL: 350 mg/kg/day
  NOAEL: 350 mg/kg/day
Rat [7]; group: maternal, systemic / in life observation / body weight / body weight gain
  LOAEL: 350 mg/kg/day
Rat [7]; [26]
  NEL: 100 mg/kg/day
  NOAEL: 100 mg/kg/day
Rat [7]; group: maternal, systemic / in life observation / body weight / body weight gain + systemic / in life observation / clinical signs / red or crusty deposits …
  LEL: 350 mg/kg/day
Rat [8]; [27]
  LEL: 2000 mg/kg/day
  LOAEL: 2000 mg/kg/day
  NEL: 400 mg/kg/day
  NOAEL: 400 mg/kg/day
Rat [8]; [28]
  LEL: 400 mg/kg/day
  LOAEL: 400 mg/kg/day
  NEL: 40 mg/kg/day
  NOAEL: 40 mg/kg/day
Mouse [9]
  LEL: 519 mg/kg/day
  LOAEL: 519 mg/kg/day
  NEL: 108 mg/kg/day
  NOAEL: 108 mg/kg/day
Rat [10]; [29]
  LEL: 1140 mg/kg/day
  LOAEL: > 1140 mg/kg/day
  NEL: 279 mg/kg/day
  NOAEL: ≥ 1140 mg/kg/day
Rat [10]; [30]
  LOAEL: 276 mg/kg/day
  NOAEL: 64.8 mg/kg/day
Rat [10]; [31]
  LEL: 15.9 mg/kg/day
  NEL: < 15.9 mg/kg/day
dog
  LEL: 5 mg/kg/day
  LOAEL: 50 mg/kg/day
  NEL: < 5 mg/kg/day
  NOAEL: 5 mg/kg/day
Rat [11]
  LEL: 100 mg/kg/day
  LOAEL: 100 mg/kg/day
  NEL: 30 mg/kg/day
  NOAEL: 30 mg/kg/day
Rat [12]; [32]
  LEL: 150 mg/kg/day
  LOAEL: 150 mg/kg/day
  NEL: 50 mg/kg/day
  NOAEL: 50 mg/kg/day
Rat [12]; [33]
  LEL: 150 mg/kg/day
  LOAEL: 150 mg/kg/day
  NEL: 50 mg/kg/day
  NOAEL: 50 mg/kg/day

## c1ccc(NNc2ccccc2)cc1 [1,2-Diphenylhydrazine]
Rat [13]; [34]
  LEL: 2 mg/kg/day
  NEL: < 2 mg/kg/day
Rat [13]; [35]
  LOAEL: > 4 mg/kg/day
  NOAEL: ≥ 4 mg/kg/day
Mouse [14]; [34]
  LOAEL: 60 mg/kg/day
Mouse [14]; [36]
  LEL: 60 mg/kg/day
  NEL: 6 mg/kg/day
  NOAEL: 6 mg/kg/day

## C[C@@H](O)[C@H]1C(=O)N2C(C(=O)[O-])=C(CN3c4cccc5c(CC[N+]67CC[N+](CC(N)=O)(CC6)CC7)ccc(c45)S3(=O)=O)[C@H](C)[C@H]12.[Cl-]
Rat [15]
  LEL: 150 mg/kg/day
  LOAEL: > 225 mg/kg/day
  NEL: 75 mg/kg/day
  NOAEL: ≥ 225 mg/kg/day
Rat [16]
  LEL: 150 mg/kg/day
  LOAEL: > 225 mg/kg/day
  NEL: 75 mg/kg/day
  NOAEL: ≥ 225 mg/kg/day
Rat [17]
  LEL: 150 mg/kg/day
  LOAEL: > 150 mg/kg/day
  NEL: < 150 mg/kg/day
  NOAEL: ≥ 150 mg/kg/day
Mouse [18]
  LEL: 400 mg/kg/day
  LOAEL: > 800 mg/kg/day
  NEL: 200 mg/kg/day
  NOAEL: ≥ 800 mg/kg/day
